Results published in patent US20220073536A1 (Rigel Pharmaceuticals, Inc., priority 2003, published 2022).
Structures can show the parent of a compound that is named as a salt. Where two headings read alike, the source gives them in different places. Each block holds one compound with its values, some of them ahead of it.

Tested on: cultured human mast cells (CHMC)
Test: CHMC low cell density IgE activation: tryptase assay
Type: cell-based
How it was run: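 CHMC at 1000–1500 cells/well were preincubated 1 hr at 37° C., stimulated with anti-IgE for 30 minutes at 37° C., then pelleted. Supernatant tryptase was measured with a fluorogenic substrate after 30 min at room temperature, against un-stimulated control wells.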

[1] = low cell density CHMC, IgE activation, tryptase, 8 pt, read-out: LD Tryptase, CHMC, IgE, 8 pt
[2] = Homo sapiens, Mast cell, low cell density CHMC, IgE activation, tryptase, 8 pt, read-out: LD Tryptase, CHMC, IgE, 8 pt
[3] = low cell density, IgE activation, 3 pt, read-out: LD Tryptase, CHMC, IgE, 3 pt
[4] = low cell density, IgE activation, 8 pt, read-out: LD Tryptase, CHMC, IgE, 8 pt
[5] = Homo sapiens, Mast cell, low cell density, IgE activation, 3 pt, read-out: LD Tryptase, CHMC, IgE, 3 pt
[6] = low cell density CHMC, IgE activation, tryptase, 3 pt, read-out: LD Tryptase, CHMC, IgE, 3 pt
[7] = Homo sapiens, Mast cell, low cell density, IgE activation, 8 pt, read-out: LD Tryptase, CHMC, IgE, 8 pt
[8] = low cell density CHMC, IgE activation, tryptase release, 3 pt, read-out: LD Tryptase, CHMC, IgE, 3 pt
[9] = low cell density CHMC, IgE activation, tryptase release, 8 point, read-out: LD Tryptase, CHMC, IgE, 8 pt
[10] = Homo sapiens, Mast cell, low cell density CHMC, IgE activation, tryptase, 3 pt, read-out: LD Tryptase, CHMC, IgE, 3 pt
[11] = Homo sapiens, Mast cell, low cell density CHMC, IgE activation, tryptase release, 8 pt, read-out: LD Tryptase, CHMC, IgE, 8 pt
[12] = Homo sapiens, Mast cell, low cell density CHMC, IgE activation, tryptase release, 3 pt, read-out: LD Tryptase, CHMC, IgE, 3 pt
[13] = low cell density CHMC, IgE activation, tryptase release, 8 pt, read-out: LD Tryptase, CHMC, IgE, 8 pt

- IC50 [1]: < 10 µM
Compound: N4- (5-Amino-1,2,4-triazol-3-yl)-5-fluoro-N2-[3- (N-methylamino)carbonylmethyleneoxyphenyl]-2,4-pyrimidinediamine [Compound 1251]

- IC50 [2]: < 10 µM
Compound: Cc1cc(C)cc(Nc2ncc(F)c(Nc3ccc4c(c3)OCO4)n2)c1 [Compound 376]

- IC50 [3]: < 10 µM
- IC50 [4]: < 10 µM
Compound: N4- (2,2-Dimethyl-3-oxo-4H-benz[1,4]oxazin-6-yl)-5-fluoro-N2-{1-methyl-2-[ (methylsulfonyl)methyl]benzimidazol-5-yl}-2,4-pyrimidinediamine [Compound 967]

- IC50 [5]: < 10 µM
Compound: CC1(C)C(=O)Nc2cc(Nc3nc(Nc4ccc5oncc5c4)ncc3F)ccc2S1(=O)=O [Compound 930]

- IC50 [5]: > 10 µM
Compound: CNC(=O)c1ccc(Nc2nc(Nc3ccc(Cl)c(C(=O)NC)c3)ncc2F)cc1Cl [Compound 484]

- IC50 [1]: < 10 µM
Compound: N[C@@H]1CCOc2ccc(Nc3nc(Nc4ccc(-c5ncco5)cc4)ncc3F)cc21 (racemic) [Compound 1294, (R,S)-N4-[4-Amino-3,4-dihydro-2H-1-benzopyran-6-yl]-5-fluoro-N2-[4-(oxazol-2-yl)phenyl]-2,4-pyrimidinediamine]

- IC50 [2]: < 10 µM
Compound: CC1(C)Oc2ccc(Nc3nc(Nc4ccc5c(cnn5C5CCCCC5)c4)ncc3F)cc2NC1=O [Compound 744, N2-(1-Cyclohexylindazol-5-yl)-N4-(2,2-dimethyl-3-oxo-4H-benz[1,4]oxazin-6-yl)-5-fluoro-2,4-pyrimidinediamine]

- IC50 [6]: > 10 µM
Compound: Cc1cc(Nc2ncc(F)c(Nc3ccc4c(c3)OC(F)(F)C(F)(F)O4)n2)cc(C)c1Cl [Compound 358]

- IC50 [6]: < 10 µM
- IC50 [1]: < 10 µM
Compound: N4- (2,2-Dimethyl-3-oxo-4H-N4-oxo-5-pyrido[1,4]oxazin-6-yl)-5-fluoro-N2- (3,4,5-trimethoxyphenyl)-2,4-pyrimidinediamine [Compound 1340]

- IC50 [3]: < 10 µM
- IC50 [4]: < 10 µM
Compound: CCOCCCn1ncc2cc(Nc3ncc(F)c(Nc4ccc5c(n4)NC(=O)C(C)(C)O5)n3)ccc21 [Compound 875, N4-(2,2-Dimethyl-3-oxo-4H-5-pyrid[1,4]oxazin-6-yl)-N2-[1-(3-ethoxypropyl)indazol-5-yl]-5-fluoro-2,4-pyrimidinediamine]

- IC50 [7]: < 10 µM
Compound: COc1cc(Nc2ncc(F)c(Nc3cc(C)cc(C)c3)n2)cc(OC)c1OC [Compound 553]

- IC50 [8]: < 10 µM
Compound: N4-[benzoxathiazin-3 (4H)-one-6-yl]2-chloro-5-fluoro-4-pyrimidineamine [Compound 319]

- IC50 (low cell density CHMC, IgE activation, tryptase release, 3 point, read-out: LD Tryptase, CHMC, IgE, 3 pt): < 10 µM
- IC50 [9]: < 10 µM
Compound: CNC(=O)COc1c(C)cc(Nc2ncc(F)c(Nc3ccc4c(c3)NC(=O)C(C)(C)O4)n2)cc1C [Compound 574, N2-[3,5-dimethyl-4-(N-methylamino)carbonylmethyleneoxyphenyl]-N4-(2,2-dimethyl-3-oxo-4H-benz[1,4]oxazin-6-yl)-5-fluoro-2,4-pyrimidinediamine]

- IC50 [10]: < 10 µM
Compound: Cc1cc(Nc2ncc(F)c(NC3CCCCC3)n2)cnc1N1CCN(C)CC1 [Compound 1241]

- IC50 [7]: < 10 µM
Compound: CC1(C)Oc2ccc(Nc3nc(Nc4ccc5[nH]c(N6CCOCC6)nc5c4)ncc3F)cc2NC1=O [Compound 976, N4-(2,2-Dimethyl-3-oxo-4H-benz[1,4]oxazin-6-yl)-5-fluoro-N2-[2-(4-morpholino)-1H-benzimidazol-5-yl]-2,4-pyrimidinediamine]

- IC50 [10]: < 10 µM
Compound: COc1ccc(Nc2ncc(F)c(Nc3ccc4c(c3)OCCO4)n2)c(OC)c1OC [Compound 668, N4-(3,4-Ethylenedioxyphenyl)-5-fluoro-N2-(2,3,4-trimethoxyphenyl)-2,4-pyrimidinediamine]

- IC50 [11]: < 10 µM
Compound: COc1cc(Nc2ncc(F)c(Nc3ccc4c(c3)NC(=O)CS4(=O)=O)n2)cc(OC)c1 [Compound 303]

- IC50 [6]: < 10 µM
Compound: COc1ccc(Nc2ncc(F)c(NCC3COc4ccccc4O3)n2)cc1Cl (stereo not drawn) [Compound 1259, N2-(3-Chloro-4-methoxyphenyl)-N4-[ (2,3-dihydro-1,4-benzodioxan-2-yl)methyl]-5-fluoro-2,4-pyrimidinediamine]

- IC50 [12]: < 10 µM
Compound: COc1cc(Nc2ncc(F)c(Nc3cc(OC)cc(C(F)(F)F)c3)n2)cc(C(F)(F)F)c1 [Compound 333]

- IC50 [2]: < 10 µM
Compound: COc1cc(Nc2nc(Nc3ccc4c(cnn4CC4CC4)c3)ncc2F)ccc1F [Compound 737, N2-[1-(Cyclopropylmethyl)indazol-5-yl)-5-fluoro-N4-(4-fluoro-3-methoxyphenyl)-2,4-pyrimidinediamine]

- IC50 [1]: < 10 µM
Compound: COc1cc(Nc2nc(Nc3ccc4c(cnn4CC4CCC4)c3)ncc2F)ccc1F [Compound 729, N2-[1-(Cyclobuylmethyl)indazol-5-yl)-5-fluoro-N4-(4-fluoro-3-methoxyphenyl)-2,4-pyrimidinediamine]

- IC50 [5]: < 10 µM
Compound: COc1ccc(Nc2nc(Nc3ccc4nc(C)[nH]c4c3)ncc2F)nc1Cl [Compound 884]

- IC50 [10]: < 10 µM
Compound: CCCn1ncc2cc(Nc3ncc(F)c(Nc4ccc(Cl)c(Cl)c4)n3)ccc21 [Compound 703, N4-(3,4-Dichlorophenyl)-5-fluoro-N2-(1-n-propylindazol-5-yl)-2,4-pyrimidinediamine]

- IC50 [6]: < 10 µM
- IC50 [1]: < 10 µM
Compound: CCN(CC)CCNC(=O)c1ccc(Nc2ncc(F)c(Nc3ccc(Cl)c(OC)c3)n2)cc1 [Compound 1355, N4-(4-Chloro-3-methoxyphenyl)-N2-(4-[2-[N,N-diethylamino]ethyleneaminocarbonyl]phenyl)-5-fluoro-2,4-pyrimidinediamine]

- IC50 [10]: < 10 µM
Compound: CN1CCN(c2ccc(Nc3ncc(F)c(Nc4cc(C5CC5)n[nH]4)n3)cc2Cl)CC1 [Compound 1196, N2-[3-Chloro-4-(4-methylpiperazino)phenyl]-N4-(3-cyclopropyl-1H-pyrazol-5-yl)-5-fluoro-2,4-pyrimidinediamine]

- IC50 [3]: < 10 µM
- IC50 [4]: < 10 µM
Compound: CC1(C)Oc2ccc(Nc3nc(Nc4ccc5c(c4)nc(C(F)(F)F)n5CCCO)ncc3F)nc2NC1=O [Compound 941, N4-(2,2-Dimethyl-3-oxo-4H-5-pyrido[1,4]oxazin-6-yl)-5-fluoro-N2-[1-(3-hydroxypropyl)-2-trifluoromethylbenzimidazol-5-yl]-2,4-pyrimidinediamine]

- IC50 [10]: > 10 µM
Compound: CN1CCN(c2ccc(Nc3ncc(F)c(NC4CC(C)(C)N(C)C(C)(C)C4)n3)cc2Cl)CC1 [Compound 1222]

- IC50 [5]: < 10 µM
Compound: COc1ccc(Nc2nc(Nc3ccc4c(cnn4CCCNC(=O)C(C)C)c3)ncc2F)nc1Cl [Compound 893]

- IC50 [13]: < 10 µM
Compound: Cc1n[nH]c2cc(Nc3ncc(F)c(Nc4ccc5c(n4)NC(=O)C(C)(C)O5)n3)ccc12 [Compound 813, N4-(2,2-Dimethyl-3-oxo-4H-5-pyrid[1,4]oxazin-6-yl)-5-fluoro-N2-(3-methyl-1H-indazol-6-yl)-2,4-pyrimidinediamine]

- IC50 [9]: < 10 µM
Compound: N2- (3-Chloro-4-hydroxy-5-methylphenyl)-N4-[3,4-(difluoromethylenedioxy)phenyl]-5-fluoro-2,4-pyrimidinediamine [Compound 567]

- IC50 [11]: < 10 µM
Compound: C[C@@H]1Oc2ccc(Nc3nc(Nc4ccc5c(cnn5CCCN)c4)ncc3F)cc2NC1=O [Compound 826, (S)-N2-[1-(3-Aminopropyl)indazol-5-yl]-5-fluoro-N4-(2-methyl-3-oxo-2H,4H-benz[1,4]oxazin-6-yl)-2,4-pyrimidinediamine]

- IC50 [8]: > 10 µM
Compound: O=C1CS(=O)(=O)c2ccc(Nc3nc(Cl)ncc3F)cc2N1 [Compound 315, N2-Chloro-5-fluoro-N4-(1,1,3-trioxo-2H,4H-benzo[1,4]thiazin-6-yl)-4-pyrimidineamine]

- IC50 [1]: < 10 µM
Compound: COC(=O)CN1C(=O)C(C)(C)Oc2ccc(Nc3nc(Nc4cc(OC)c(OC)c(OC)c4)ncc3F)nc21 [Compound 690, N4-(2,2-Dimethyl-4-carbomethoxymethyl-3-oxo-5-pyrid[1,4]oxazin-6-yl)-5-fluoro-N2-(3,4,5-trimethoxyphenyl)-2,4-pyrimidinediamine]

- IC50 [12]: < 10 µM
- IC50 [11]: < 10 µM
Compound: O=C1CSc2ccc(Nc3nc(Nc4cccc(O)c4)ncc3F)cc2N1 [Compound 281]

- IC50 [11]: < 10 µM
Compound: COc1ccc(Nc2ncc(F)c(Nc3ccc4c(c3)NC(=O)[C@@H](C)O4)n2)cc1Cl [Compound 207]

Compound: CNC(=O)COc1cccc(Nc2ncc(F)c(Nc3ccc4c(n3)NC(=O)C(C)(C)O4)n2)c1 [Compound 984, N4-(2,2-Dimethyl-3-oxo-4H-5-pyrid[1,4]oxazin-6-yl)-5-fluoro-N2-[3-(N-methylamino)carbonylmethyleneoxyphenyl]-2,4-pyrimidinediamine Benzensulfonic Acid Salt]
- IC50 (Homo sapiens, Mast cell, read-out: LD Tryptase, CHMC, IgE, 3 pt): < 10 µM
- IC50 (Homo sapiens, Mast cell, read-out: LD Tryptase, CHMC, IgE, 8 pt): < 10 µM

- IC50 [13]: < 10 µM
Compound: C[C@H]1Oc2ccc(Nc3nc(Nc4cc5c6c(c4)c(CCO)cn6CCO5)ncc3F)cc2NC1=O [Compound 205, (R)-5-Fluoro-N2-[6-(2-hydroxyethyl)-2,3-dihydropyrrolo[1,2,3-d,e]benzoxazin-8-yl]-N4-(2-methyl-3-oxo-2H,4H-benz[1,4]oxazin-6-yl)-2,4-pyrimidinediamine]
